Reference: patent US20250084084A1, “Crystalline form of (2R)-2-(5-fluoro-2-methoxypyridin-4-yl)-1-[(2S)-7-methyl-6-(pyrimidin-2-yl)-3,4-dihydro-1H-spiro[1,8-naphthyridine-2,3-pyrrolidin]-1-yl]propan-1-one” (Pfizer Inc., priority 2020, published 2025)
Read-outs that look alike come from different tables or passages of the source.

Biological target: α-melanocyte-stimulating hormone receptor (hMC4R) (Homo sapiens (Human), UniProt P32245)
Test: In vitro binding affinity assay using hMC4R (radioligand competition binding, [125I]-(Nle4, D-Phe7)-α-MSH)
Conditions: geometric mean
Experimental: The binding affinity of test compounds at the α-melanocyte-stimulating hormone receptor (hMC4R) was assessed using a radioligand competition binding assay. Recombinant Chinese hamster ovaries (CHO) cells stably expressing hMC4R (PerkinElmer #ES-191-C) were used for competitive binding. hMC4R membranes were grown in Dulbecco's Modified Essential Medium and Ham's F-12 Medium (DMEM/F12), 10% heat inactivated fetal bovine serum (FBS), 0.4 mg/mL Geneticin and 2 mM L-glutamine. Cell membranes were bulked and frozen until the assay was performed.
Compounds were solubilized in 100% dimethyl sulfoxide (DMSO) to a concentration of 30 mM. A 10-point intermediate dilution series using half log dilutions was created in 100% DMSO with a top concentration of 0.03 mM. The serially diluted compounds were spotted as 1 μL/well, in 96-well Costar 3363 plates. The final compound range in the assay was 300 nM to 0.01 nM with a final DMSO concentration of 1%. Control wells, containing 1 μL of 2 mM ([…]) alpha-melanocyte stimulating hormone (α-MSH-Tocris #2584) was added to the non-specific binding wells and 1 μL 100% DMSO for the total binding control wells. […] The exact concentration of radioligand used for each experiment was determined by liquid scintillation counting and adjusted if necessary.
Frozen hMC4R cell membranes were thawed and Dounce homogenized. Homogenates were resuspended in assay buffer to a concentration of 2 μg per well. […] The plates were incubated for 2 hours at room temperature. Assay samples were then rapidly filtered through Unifilter-96 GF/B PEI coated filter plates using a filter plate harvester (PerkinElmer) and rinsed with ice-cold wash buffer [25 mM (4-(2-hydroxyethyl)-1-piperazineethanesulfonic acid (HEPES), 1 mM MgCl2, 2.5 mM CaCl2, and 500 mM NaCl]. Filter plates were dried overnight at room temperature. Plates were then bottom-sealed prior to the addition of 50 μL/well Ultima Gold XR scintillation fluid (PerkinElmer 6013111). Plates were then top-sealed, incubated for 60 minutes at room temperature and then the amount of radioactivity present was determined by liquid scintillation counting on a Microbeta Trilux (PerkinElmer #2450-0060).
The raw data (expressed as counts per minute) were analyzed using ActivityBase (IDBS Data Management Software). […] Equilibrium dissociation constant for inhibitor of ligand and receptor interaction (Ki) values were then calculated from the IC50 values using the Cheng-Prusoff equation: Ki=IC50/(1+([L]/Kd)), where [L] is the concentration of the radioligand used in the experiment and Kd is the affinity of the radioligand (determined in separate saturation experiments).

[1] = read-out: Ki (nM) geometric mean

α-melanocyte-stimulating hormone receptor (hMC4R), sequence (P32245 whole entry): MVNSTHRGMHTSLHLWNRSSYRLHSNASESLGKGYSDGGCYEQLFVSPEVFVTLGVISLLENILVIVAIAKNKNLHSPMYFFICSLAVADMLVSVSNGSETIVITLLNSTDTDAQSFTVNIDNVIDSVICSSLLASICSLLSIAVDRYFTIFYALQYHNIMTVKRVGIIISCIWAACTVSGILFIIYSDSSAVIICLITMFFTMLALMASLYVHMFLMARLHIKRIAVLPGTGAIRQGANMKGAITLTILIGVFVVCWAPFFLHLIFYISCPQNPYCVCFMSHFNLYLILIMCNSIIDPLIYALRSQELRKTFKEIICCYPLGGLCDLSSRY

| Structure (SMILES) | Ki [1] [nM] | Ki (read-out: Ki (nM) geometric) [nM] |
| --- | --- | --- |
| Cc1ccc2c(n1)N[C@@]1(CC2)CCN(C(=O)Cc2ccc(F)cc2)C1 (single isomer, unassigned) [Example 87, 2-(4-fluorophenyl)-1-(7-methyl-3,4-dihydro-1H-spiro[1,8-naphthyridine-2,3′-pyrrolidin]-1′-yl)ethan-1-one] | 48 |  |
| COc1cc([C@@H](C)C(=O)N2CC[C@@]3(CCc4cc(-c5ncccn5)c(C)nc4N3)C2)cc(OC)n1 (single isomer, unassigned) [Example 83] | 0.67 |  |
| COc1cc([C@@H](C)C(=O)N2CC[C@@]3(CCc4cc(-c5ccnnc5)c(C)nc4N3)C2)c(F)cn1 [Example 141, (2R)-2-(5-fluoro-2-methoxypyridin-4-yl)-1-[(2S)-7-methyl-6-(pyridazin-4-yl)-3,4-dihydro-1H-spiro[1,8-naphthyridine-2,3′-pyrrolidin]-1′-yl]propan-1-one] |  | 14 |
| COc1cc([C@@H](C)C(=O)N2CC[C@@]3(CCc4cc(-c5cccc(-c6nnc(C)o6)c5)c(C)nc4N3)C2)c(F)cn1 [Example 161, (2R)-2-(5-fluoro-2-methoxypyridin-4-yl)-1-{(2S)-7-methyl-6-[3-(5-methyl-1,3,4-oxadiazol-2-yl)phenyl]-3,4-dihydro-1H-spiro[1,8-naphthyridine-2,3′-pyrrolidin]-1′-yl}propan-1-one] |  | 47 |
| COc1cc([C@@H](C)C(=O)N2CC[C@@]3(CCc4cc(-c5cncc(C6CC6)n5)c(C)nc4N3)C2)c(F)cn1 [Example 177, (2R)-1-[(2S)-6-(6-cyclopropylpyrazin-2-yl)-7-methyl-3,4-dihydro-1H-spiro[1,8-naphthyridine-2,3′-pyrrolidin]-1′-yl]-2-(5-fluoro-2-methoxypyridin-4-yl)propan-1-one] |  | 59 |
| COc1cc([C@@H](C)C(=O)N2CC[C@@]3(CCc4cc(-c5nccs5)c(C)nc4N3)C2)c(F)cn1 [Example 167, (2R)-2-(5-fluoro-2-methoxypyridin-4-yl)-1-[(2S)-7-methyl-6-(1,3-thiazol-2-yl)-3,4-dihydro-1H-spiro[1,8-naphthyridine-2,3′-pyrrolidin]-1′-yl]propan-1-one] |  | 5.4 |
| COc1cc([C@@H](C)C(=O)N2CC[C@@]3(CCc4cc(Cl)c(C)nc4N3)C2)c(F)cn1 (single isomer, unassigned) [Example 102] |  | 110 |
| COc1cc([C@@H](C)C(=O)N2CC[C@@]3(CCc4cc(-c5cnn(C)n5)c(C)nc4N3)C2)c(Cl)cn1 [Example 119, (2R)-2-(5-chloro-2-methoxypyridin-4-yl)-1-[(2S)-7-methyl-6-(2-methyl-2H-1,2,3-triazol-4-yl)-3,4-dihydro-1H-spiro[1,8-naphthyridine-2,3′-pyrrolidin]-1′-yl]propan-1-one] |  | > 17 |
| COc1cc([C@@H](C)C(=O)N2CC[C@@]3(CCc4cc(-c5ncc(Cl)cn5)c(C)nc4N3)C2)c(F)cn1 [Example 144, (2R)-1-[(2S)-6-(5-chloropyrimidin-2-yl)-7-methyl-3,4-dihydro-1H-spiro[1,8-naphthyridine-2,3′-pyrrolidin]-1′-yl]-2-(5-fluoro-2-methoxypyridin-4-yl)propan-1-one] |  | 2 |
| Cc1nc2c(cc1-c1ncccn1)CC[C@@]1(CCN(C(=O)C(C)c3ccnc(OC(F)F)c3)C1)N2 (single isomer, unassigned) [Example 194] |  | 92 |
| COc1cc([C@@H](C)C(=O)N2CC[C@@]3(CCc4cc(-c5ncccn5)c(C)nc4N3)C2)c(Cl)cn1 [Example 15, (2R)-2-(5-Chloro-2-methoxypyridin-4-yl)-1-[(2S)-7-methyl-6-(pyrimidin-2-yl)-3,4-dihydro-1H-spiro[1,8-naphthyridine-2,3′-pyrrolidin]-1′-yl]propan-1-one] | 0.25 |  |
| COc1cc([C@@H](C)C(=O)N2CC[C@@]3(CCc4cc(-c5nnn(C)n5)c(C)nc4N3)C2)ccn1 (single isomer, unassigned) [Example 125] |  | 3.4 |
